Assay results taken from publication PMC9633730, “Endowing homodimeric carbamoyltransferase GdmN with iterative functions through structural characterization and mechanistic studies” (Nature Communications, 2022).

Columns and labels:
GdmN = target: T1, GdmN (Streptomyces hygroscopicus, UniProt Q84G19, V24Y/G157A/R158A/G188R); test: X-ray co-crystal structure; type: binding; conditions: reaction intermediate formed from ATP, MgCl2 and carbamoyl phosphate; carbamoyl group rotated
T1 construct: homodimer; Kae1-like M1-L351, YrdC-like G368-A571, dimerization domain D574-L674; one iron ion per monomer

[1] = target: GdmN (Streptomyces hygroscopicus XM201); test: SEC; Superdex 200 Increase 10/300 GL, buffer C (10 mM Tris, 150 mM NaCl, pH 8.0), calibrated with Bio-Rad gel filtration standards; monomer to dimer

T1 sequence (Q84G19 entry or part of it V24Y/G157A/R158A/G188R): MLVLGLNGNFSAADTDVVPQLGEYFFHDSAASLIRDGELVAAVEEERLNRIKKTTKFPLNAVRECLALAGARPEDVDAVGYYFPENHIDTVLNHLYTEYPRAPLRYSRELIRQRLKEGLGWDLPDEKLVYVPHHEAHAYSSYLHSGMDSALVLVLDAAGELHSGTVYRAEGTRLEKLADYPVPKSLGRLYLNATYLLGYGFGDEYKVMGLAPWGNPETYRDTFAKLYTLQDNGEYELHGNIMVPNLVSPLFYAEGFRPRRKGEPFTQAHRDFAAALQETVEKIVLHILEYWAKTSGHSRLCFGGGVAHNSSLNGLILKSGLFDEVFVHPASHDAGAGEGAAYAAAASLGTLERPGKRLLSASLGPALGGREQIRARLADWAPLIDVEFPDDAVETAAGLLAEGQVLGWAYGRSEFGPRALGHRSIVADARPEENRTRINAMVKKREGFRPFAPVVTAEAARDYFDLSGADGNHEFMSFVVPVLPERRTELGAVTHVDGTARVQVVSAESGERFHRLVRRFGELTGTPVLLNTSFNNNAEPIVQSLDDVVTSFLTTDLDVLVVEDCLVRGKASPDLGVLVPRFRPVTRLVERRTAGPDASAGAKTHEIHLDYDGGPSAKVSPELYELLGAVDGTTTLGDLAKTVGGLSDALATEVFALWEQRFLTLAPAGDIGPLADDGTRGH

| stoichiometry N [1] | Compound | X-ray co-crystal structure (GdmN) |
| --- | --- | --- |
|  | NC(=O)OP(=O)(O)OC[C@H]1O[C@@H](n2cnc3c(N)ncnc32)[C@H](O)[C@@H]1O [carbamoyl-AMP] | complex of GdmN V24Y/G157A/R158A/G188R mutant with carbamoyl-AMP (PDB: 7VZQ) |
| 2 | GdmN (enzyme) |  |
